{
  "source": "patent US12721823B2",
  "about": "“Methods and compositions for treatment of low circulating testosterone conditions” (University of Florida Research Foundation, Inc., priority 2021, dated 2026)",
  "system": "Sprague-Dawley rats",
  "test": "Acute serum corticosterone 1 h after last sevoflurane exposure (ELISA)",
  "assay_type": "in vivo, rat",
  "conditions": "sevoflurane 3 h on P56, P58, P60, 1 h after last exposure, vs control",
  "experimental": "Male and female rats in Generation 1 (G1) underwent anesthesia on postnatal days 56, 58 and 60. During this period, rats were held in a temperature-controlled chamber (+37° C.) with a continuous supply of 30% oxygen in air (1.5 L/min) during anesthesia-6% sevoflurane for 3 min for anesthesia induction and 2.1% sevoflurane for 177 min for anesthesia maintenance (the Sevoflurane group). Gas monitoring was performed using a calibrated Datex side stream analyzer (Datex-Ohmeda, Helsinki, Finland), which samples from the animal chamber interior. Rats in the G1 control group (Control) were not subjected to anesthesia. A subset of the rats in the G1 Control and Sevoflurane groups was sacrificed 1 h after the last exposure to sevoflurane (or equivalent timepoint in the Control group) to collect blood and brain tissue samples. FIG. 1 provides a schematic of experimental design. The remaining Control and Sevoflurane G1 male and female rats were mated on P85 to produce offspring (generation 2, G2). […] Serum corticosterone was measured using commercial ELISA kits (Cayman Chemical Company, Ann Arbor, MI, USA) according to the manufacturer's instructions. […] (FIGS. 2C-2F) Representative confocal images and quantitative analysis of the KCC2 immunoreactivity in the paraventricular nucleus (PVN) of the hypothalamus of the control and sevoflurane-exposed male (FIGS. 2C, 2E) and female (FIGS. 2D, 2F) rats. […]",
  "data": [
    {"smiles": "FCOC(C(F)(F)F)C(F)(F)F", "note": "[sevoflurane, 1,1,1,3,3,3-hexafluoro-2-(fluoromethoxy)propane]", "values": [
      {"measurement": "serum levels of corticosterone", "setting": "G1 female rats", "value": "significantly increased"},
      {"measurement": "serum levels of corticosterone", "setting": "G1 male rats", "value": "significantly increased"}
    ]}
  ]
}
